Reference: the supplement of paper PMC10307832

Columns and labels:
Experiment in all cases: relative viability (nuclei count vs DMSO), 5 days (fraction); higher = more cells survive
[1] = compound: CC1=CC(=CC=C1)NC2=NC(=CS2)C3=CC=NC=C3 + CC(=O)c1c(C)c2cnc(Nc3ccc(N4CCNCC4)cn3)nc2n(C2CCCC2)c1=O [Palbociclib] (partner 0.5 µM)
Summary of the method: (§1)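 Relative viability is defined as nuclei in treated wells over nuclei in vehicle wells. Duplicate plates were run and medians reported. Lung cancer cell lines in 1536-well plates were dosed by pin tool one day after seeding, with one drug or with a fixed anchor-drug dose plus five library-drug doses (not always all listed) in √10 steps, and nuclei were counted after 5 days.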

[2] = compound: CC1=CC(=CC=C1)NC2=NC(=CS2)C3=CC=NC=C3 + C[C@]1(O)C[C@@H](c2nc(-c3ccc4ccc(-c5ccccc5)nc4c3)c3c(N)nccn32)C1 [Linsitinib] (partner 1 µM)
Summary of the method: as §1

[3] = compound: CC1=CC(=CC=C1)NC2=NC(=CS2)C3=CC=NC=C3 + CC(=O)Nc1cccc(-n2c(=O)n(C3CC3)c(=O)c3c(Nc4ccc(I)cc4F)n(C)c(=O)c(C)c32)c1 [Trametinib] (partner 0.02 µM)
Summary of the method: as §1

[4] = compound: CC1=CC(=CC=C1)NC2=NC(=CS2)C3=CC=NC=C3 + CC1(C)CCC(c2ccc(Cl)cc2)=C(CN2CCN(c3ccc(C(=O)NS(=O)(=O)c4ccc(N[C@H](CCN5CCOCC5)CSc5ccccc5)c(S(=O)(=O)C(F)(F)F)c4)cc3)CC2)C1 [Navitoclax] (partner 0.5 µM)
Summary of the method: as §1

Cell Line	relative viability ([1]; first compound 0.08 µM)	relative viability ([1]; first compound 0.253 µM)	relative viability ([1]; first compound 0.8 µM)	relative viability ([1]; first compound 2.53 µM)	relative viability ([1]; first compound 8 µM)	relative viability ([2]; first compound 0.253 µM)	relative viability ([2]; first compound 0.8 µM)	relative viability ([2]; first compound 2.53 µM)	relative viability ([2]; first compound 8 µM)	relative viability ([3]; first compound 0.08 µM)	relative viability ([3]; first compound 0.253 µM)	relative viability ([3]; first compound 0.8 µM)	relative viability ([3]; first compound 2.53 µM)	relative viability ([3]; first compound 8 µM)	relative viability ([4]; first compound 0.253 µM)	relative viability ([4]; first compound 0.8 µM)	relative viability ([4]; first compound 2.53 µM)	relative viability ([4]; first compound 8 µM)	relative viability ([2]; first compound 0.08 µM)	relative viability ([4]; first compound 0.08 µM)
LU99A	0.387	0.384	0.42	0.39	0.468	0.669	0.532	0.554	0.538	0.521	0.575	0.509	0.525	0.477	0.861	0.838	0.835	0.978		
LXF-289	0.57	0.642	0.57	0.645	0.553	0.933	0.955	0.986	0.85	0.639	0.674	0.648	0.739	0.606	0.921	0.939	0.908	0.822	0.971	0.944
NCI-H23	0.37	0.459	0.518	0.479	0.524	0.607	0.639	0.584	0.583	0.371	0.199	0.424	0.388	0.419	0.832	1	0.831	0.999	0.491	0.822
NCI-H322M	0.463	0.47	0.565	0.574	0.563	0.937	0.791	1.12	0.771	0.482	0.534	0.509	0.552	0.52	1.12	1.19	1.29	1.12	0.832	1.19
NCI-H441	0.214	0.205	0.261	0.224	0.184	0.574	0.708	0.523	0.497	0.363	0.418	0.623	0.348	0.349	0.42	0.673	0.64	0.777	0.497	0.327
NCI-H460	0.0801	0.0813	0.0708	0.0785	0.086	0.95	0.605	0.862	0.525	0.0961	0.0855	0.0743	0.0913	0.111	1.08	1.08	1.13	1	0.736	1.13
NCI-H520	0.217	0.234	0.239	0.261	0.291	0.935	0.975	0.986	1	0.592	0.671	0.757	0.707	0.716	1.09	1.15	1.12	1.15	0.91	1.04
NCI-H647	0.379	0.262	0.369	0.442	0.365	0.992	1.05	1.1	0.815	0.408	0.379	0.387	0.424	0.279	0.887	0.938	1.1	0.942	1.01	0.799
NCI-H727	0.725		0.541		0.695	0.283	0.268	0.199	0.343	0.422		0.439		0.405	0.372	0.383	0.345	0.269	0.283	0.458
NCI-H838	0.22	0.205	0.207	0.217	0.179	0.937	0.855	0.868	0.651	0.446	0.458	0.443	0.372	0.407	1.09	1.04	1.09	0.924	0.882	0.954
NCI-H1355	0.35	0.282	0.27	0.285	0.284	0.584	0.579	0.673	0.568	0.388	0.298	0.275	0.294	0.269	0.69	0.591	0.555	0.577	0.713	0.783
NCI-H1395	0.577		0.546	0.556	0.606	0.949	1.01	0.932	0.903	0.939		0.964	0.724	0.898	1.1	1.04	0.971	0.993	0.999	0.984
NCI-H1437	0.316	0.331	0.301	0.23	0.289	1.01	0.913	1	0.759	0.439	0.48	0.434	0.274	0.313	1.06	1.04	1.13	0.96	0.945	1.04
NCI-H1651	0.492	0.486	0.507	0.523	0.543	0.955	0.919	0.999	0.926	0.825	0.795	0.755	0.82	0.794	1.2	0.948	1.05	0.899	0.958	0.894
NCI-H1666	0.664	0.631	0.546	0.584	0.617	0.614	0.432	0.474	0.41	0.578	0.728	0.684	0.523	0.6	0.818	0.535	0.578	0.417	0.781	0.82
NCI-H1734	0.352	0.315	0.344	0.347	0.359	0.981	0.869	0.835	0.719	0.679	0.712	0.677	0.681	0.614	0.834	0.827	0.869	0.698	0.828	0.835
NCI-H1755	0.432	0.429	0.412	0.442	0.393	0.886	0.857	0.911	0.677	0.734	0.735	0.612	0.642	0.522	0.937	0.846	0.824	0.679	0.949	0.923

Cell Line	relative viability ([1]; first compound 0.08 µM)	relative viability ([1]; first compound 0.253 µM)	relative viability ([1]; first compound 0.8 µM)	relative viability ([1]; first compound 2.53 µM)	relative viability ([1]; first compound 8 µM)	relative viability ([2]; first compound 0.253 µM)	relative viability ([2]; first compound 0.8 µM)	relative viability ([2]; first compound 2.53 µM)	relative viability ([2]; first compound 8 µM)	relative viability ([3]; first compound 0.08 µM)	relative viability ([3]; first compound 0.253 µM)	relative viability ([3]; first compound 0.8 µM)	relative viability ([3]; first compound 2.53 µM)	relative viability ([3]; first compound 8 µM)	relative viability ([4]; first compound 0.253 µM)	relative viability ([4]; first compound 0.8 µM)	relative viability ([4]; first compound 2.53 µM)	relative viability ([4]; first compound 8 µM)	relative viability ([2]; first compound 0.08 µM)	relative viability ([4]; first compound 0.08 µM)
NCI-H1792	0.596		0.614	0.624	0.672	0.33	0.389	0.377	0.398	0.401	0.397	0.379	0.317	0.429	0.469	0.537	0.515	0.657	0.322	0.513
NCI-H1793	0.269	0.305	0.297	0.261	0.336	0.763	0.92	0.753	0.825	0.451	0.353	0.348	0.345	0.394	0.521	0.523	0.438	0.402		
NCI-H1915	0.545	0.47	0.53	0.524	0.492	1.08	1.05	1.09	0.989	0.308	0.29	0.27	0.266	0.27	0.791	0.84	0.779	0.811	1.1	0.747
NCI-H1944	0.288	0.307	0.298	0.299	0.292	1.15	1.26	1.19	1.12	0.345	0.409	0.39	0.362	0.357	1.01	1.05	1.01	1.01	1.17	1.03
NCI-H1975	0.497	0.416	0.51	0.374	0.241	0.868	0.702	0.754	0.738	0.294	0.274	0.335	0.263	0.193	1.13	0.879	0.895	0.726	0.825	1.16
NCI-H1993	0.594	0.604	0.476	0.554	0.533	0.605	0.714	0.698	0.738	0.514	0.517	0.596	0.348	0.461	0.718	0.818	0.775	0.793	0.675	0.724
NCI-H2009	0.251	0.309	0.28	0.279	0.23	1.16	1.1	1.18	1.15	0.249	0.271	0.265	0.267	0.278	1.12	1.11	1.18	1.02	1.15	1.05
NCI-H2023	0.408	0.428	0.424	0.355	0.112	0.666	0.618	0.678	0.507	0.592	0.617	0.429	0.375	0.179	0.961	0.945	0.916	0.715	0.63	0.958
NCI-H2085	0.464	0.463	0.475	0.47	0.349	0.952	0.911	0.838	0.578	0.513	0.376	0.428	0.471	0.426	1.13	1.12	1.12	0.809	0.901	0.959
NCI-H2087	0.186	0.245	0.227	0.238	0.221	0.862	0.996	0.888	0.798	0.178	0.195	0.246	0.164	0.181	0.996	0.945	0.799	0.82	0.934	0.963
NCI-H2126	0.336	0.38	0.346	0.321	0.339	0.694	0.71	0.726	0.657	0.509	0.528	0.426	0.476	0.485	0.912	0.849	0.909	0.778	0.671	0.828
NCI-H2228	0.655	0.797	0.74	0.749	0.615	0.629	0.408	0.586	0.705	0.418	0.48	0.501	0.44	0.385	1.07	0.622	0.969	0.655	0.569	0.866
NCI-H2347	0.392	0.417	0.413	0.444	0.436	0.802	0.688	0.948	0.93	0.289	0.309	0.256	0.29	0.265	0.751	0.599	0.83	0.632	0.751	0.613
NCI-H2405	0.49	0.489	0.488		0.498	0.927	0.799	0.999	0.926	0.566	0.571	0.591		0.552	0.802	0.655	0.883	0.673	0.777	0.732
NCI-H3122	0.185	0.193	0.384	0.253	0.193	0.938	0.907	1	0.964	0.204	0.25	0.307	0.321	0.414	1.04	1.07	1.08	1.04	0.991	1.02
PC-3 [JPC-3]	0.542		0.503	0.477	0.481	0.878	0.772	0.903	0.91	0.602		0.658	0.606	0.572	0.671	0.719	0.705	0.681	0.888	0.791
